US20030055003A1, “Use of copper chelators to inhibit the inactivation of protein C” (priority 2001, published 2003)
Where “and” joins values, the source holds several entries; their conditions need not be identical. Identical values can stand only once. Values belong to the compound of their own block, whether it stands above or below them. Where a SMILES comes first, the peptide text is derived from it.

Columns and labels:
[1] = target: T1, activated protein C (APC) (Homo sapiens, UniProt P04070); test: APC activity assay (Accucolor assay, modified for aqueous environment); type: biochemical
T1 construct: purchased Sigma (St. Louis, Mo.) P2200
Protocol: Materials. The human albumin N-terminus analogue, d-DAHK, was synthesized by Bowman Research, Ltd (Newport, Wales, U.K.). The assay for APC anticoagulant activity was the Accucolor™ calorimetric assay (Sigma Diagnostics, St. Louis, Mo.). […] Copper content of APC was determined by graphite furnace atomic absorption (Galbraith Laboratories, Knoxville, Tenn.).
APC activity assay. The APC assay, originally designed for plasma samples (Francis et al., Am. J. Clin. Pathol. 87, 619-625 (1987)) was modified for use in a clean, aqueous environment. […] Experiments were performed in a 96-well plate. […] Protein C substrate (2 mg/L) was then added to each well and incubated for ten minutes at 37° C. Concentrated acetic acid was added to each well to stop the reaction and the results were read at 410 nm on a microplate fluorescence reader (Model FL600, Bio-Tek Instruments, Inc., Winooski, Vt.).

[2] = Model of the blood brain barrier; type: in vitro ADME
Excerpt: In P1, Xaa1 is most preferably Asp, Xaa2 is most preferably Ala, and Xaa3 is most preferably Lys (see above). Thus, the preferred sequences of P1 are Asp Ala His and Asp Ala His Lys [SEQ ID NO: 1]. Most preferably the sequence of P1 is Asp Ala His Lys [SEQ ID NO: 1]. Asp Ala His is the minimum sequence of the N-terminal metal-binding site of human serum albumin necessary for the high-affinity binding of Cu(lI) and Ni(II), and Lys has been reported to contribute to the binding of these metal ions to this site. […] Other preferred sequences for P, include Thr Leu His (the N-terminal sequence of human a-fetoprotein), Arg Thr His (the N-terminal sequence of human sperm protamin HP2) and HMS HMS His (a synthetic peptide reported to form extremely stable complexes with copper; see Mlynarz et al., Speciation 98: Abstracts, Apr. 21, 1998, http://www.jate.uszeged.hu/spec98/abstr/mlynar.html).

T1 sequence (P04070 212-461 limits assumed): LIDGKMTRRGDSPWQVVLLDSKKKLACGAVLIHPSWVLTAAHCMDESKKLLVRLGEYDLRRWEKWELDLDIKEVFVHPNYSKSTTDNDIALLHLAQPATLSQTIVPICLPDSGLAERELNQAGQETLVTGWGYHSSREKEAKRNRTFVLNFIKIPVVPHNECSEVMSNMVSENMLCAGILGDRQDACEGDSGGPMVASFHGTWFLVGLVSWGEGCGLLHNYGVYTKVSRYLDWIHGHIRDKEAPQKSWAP
T1 sequence (P04070 43-197 limits assumed): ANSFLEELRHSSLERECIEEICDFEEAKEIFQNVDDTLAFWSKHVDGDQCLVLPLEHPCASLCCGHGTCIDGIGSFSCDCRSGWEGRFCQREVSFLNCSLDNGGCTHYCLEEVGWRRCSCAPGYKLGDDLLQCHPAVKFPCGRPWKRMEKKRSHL

increase over baseline APC activity, chelator alone ([1]; 40 μM chelator with APC 2 mg/L, no added copper, 30 min 37° C., mean±SD): 18.2%±13.0 | protection of copper-induced inhibition of APC, lower d-DAHK:CuCl2 ratios ([1]; d-DAHK:CuCl2 ratios below 2:1 (1:4, 1:2, 1:1)): no significant protection | increase of APC activity over baseline, d-DAHK:CuCl2 2:1 ([1]; ratio 2:1 d-DAHK:CuCl2, 30 min 37° C.): 12.9%±1.1 | increase of APC activity over baseline, d-DAHK:CuCl2 4:1 ([1]; ratio 4:1 d-DAHK:CuCl2, 30 min 37° C.): 14.8%±12.7
Compound: D-Asp D-Ala D-His D-Lys [d-DAHK]

overall mean decrease in APC activity compared to baseline ([1]; 10 μM CuCl2, mean of two separate experiments): 26.0%±11.8 | decrease in APC activity compared to baseline ([1]; 10 μM CuCl2 with APC 2 mg/L, 30 min 37° C., single experiment, mean±SD, n=3): 27.9%±15.5 and 24.1%±9.7
Compound: [Cl][Cu][Cl] [CuCl2, reference compound]

Compound: C[C@H](NC(=O)[C@@H](N)CC(=O)O)C(=O)N[C@@H](Cc1c[nH]cn1)C(=O)N[C@@H](CCCCN)C(=O)O [Asp Ala His Lys] (H-DAHK-OH; N-terminus and C-terminus assumed)
passage through a model of the blood brain barrier [2]: pass through a model of the blood brain barrier
